Data from patent publication US10040804B2, “Compounds targeting proteins, compositions, methods, and uses thereof” (BioTheryX, Inc., priority 2016, dated 2018).
Structures can show the parent of a compound that is named as a salt.

Tests used:
IL-1β = IL-1β expression in LPS stimulated PBMCs (Meso Scale); format: cell-based, human; conditions: Homo sapiens, PBMC; for inhibition at 5 µM: compound concentration 5 μM; for inhibition at 10 µM: compound concentration 10 μM
Procedure: FIGS. 5 and 9A are graphs showing IL-1-beta expression in LPS stimulated peripheral blood mononuclear cells (PBMCs), PBMCs were plated in 96-well plates and pretreated with compound (Compound 1-9 individually) for 1 h, and then induced with 100 ng/mL LPS for 18-24 h. Cytokines in the media were measured according to MesoScale protocol. Negative control wells were treated with DMSO. Compound activity is measured as a percentage of LPS-induced activity. “Rev” is lenalidomide.
(§1) Frozen primary blood mononuclear cells (PBMCs) and frozen CD14+ mobilized peripheral blood monocytes were purchased from AllCells. Cells were quick thawed, and washed 1-time with RPMI-1640/10% FBS/1% Penicillin/1% Streptomycin and plated in 96-well plates at 200,000 cells per well. Cells were pretreated with DMSO only, Compound 5013 (lenolidamide) or the indicated compound for 1 h and then induced with 100 ng/mL lipopolysaccharide (LPS) for 18-24 h. The supernatant was analyzed for IL-1 beta, IL-6, and TNF-α using Meso Scale assay according to manufacturer's protocol. The negative control wells were treated with DMSO.
(§2) PBMCs: AllCells PB003F, Normal Peripheral Blood MNC.
(§3) Media: RPMI 1640/10% FBS/1% Pen-Strep.

Molm-13 cells = test: Molm-13 cell viability (CellTiter-Glo); format: cell-based; conditions: Homo sapiens, MOLM-13; compound concentration 10 μM; read-out: % Inhibition (MOLM-13 Cell Viability)
Procedure: FIG. 10A is a graph showing antiproliferative activity in H1048 (SCLC) cells. FIG. 10B is a graph showing antiproliferative activity in Molm-13 (AML) cells. In FIGS. 10A and 10B, the cells were incubated for 72 hrs with Compound 9 at the indicated concentrations or DMSO. Compound activity was measured based on the signal from remaining viable cells.
Molm-13 cells were cultivated in RPMI-1640 (10% FBS/1% pen-strep) and were plated in white walled 96-well plates at 20,000 cells/well. H1048 cells were cultured in DMEM:F12 media supplemented with 5% fetal bovine serum, insulin, transferrin, sodium selenite, hydrocortisone, β-estradiol, penicillin and streptomycin, and were plated in white walled 96-well plates at 20,000 cells/well. MDA-MB-231 cells were cultured in DMEM media supplemented with 10% fetal bovine serum, penicillin and streptomycin, and were plated in white walled 96-well plates at 10,000 cells/well. Cells were treated with compound or DMSO (0.1%, control) and the cultures were incubated for 3 days at 37° C. and 5% CO2. Following the incubation period, 100 μL of CellTiterGlow (CTG) reagent (CellTiter-Glo® Luminescent Cell Viability Assay, Promega (Madison, Wis.)) was added to each well. Following a 10 min incubation with shaking, luminescence was measured using a Victor Wallac Luminometer.

TNF-α = TNF-α expression in LPS stimulated PBMCs (Meso Scale); format: cell-based, human; conditions: Homo sapiens, PBMC; for inhibition at 5 µM: compound concentration 5 μM; for inhibition at 10 µM: compound concentration 10 μM
Procedure: FIGS. 7 and 9C are graphs showing TNF-a expression in LPS stimulated peripheral blood mononuclear cells (PBMCs). PBMCs were plated in 96-well plates and pretreated with compound (Compound 1-9 individually) for 1 h, and then induced with 100 ng/mL LPS for 18-24 h. Cytokines in the media were measured according to MesoScale protocol. The negative control wells were treated with DMSO. Compound activity is measured as a percentage of LPS-induced activity. “Rev” is lenalidomide.
as §1, §2, §3

IL-6 = IL-6 expression in LPS stimulated PBMCs (Meso Scale); format: cell-based, human; conditions: Homo sapiens, PBMC, LPS-stimulated PBMCs; for inhibition at 5 µM: compound concentration 5 μM; for inhibition at 10 µM: compound concentration 10 μM
Procedure: FIGS. 6 and 9B are graphs showing IL-6 expression in LPS stimulated peripheral blood mononuclear cells (PBMCs). PBMCs were plated in 96-well plates and pretreated with compound (Compound 1-9 individually) for 1 h, and then induced with 100 ng/mL LPS for 18-24 h. Cytokines were measured according to MesoScale protocol. Negative control wells were treated with DMSO. Compound activity was measured as a percentage of LPS-induced activity. “Rev” is lenalidomide.
as §1, §2, §3

IL-2 = test: anti-CD3-induced IL-2 secretion in PBMCs; format: cell-based; conditions: Homo sapiens, PBMC, anti-CD3 stimulated PBMCs, 24 h, DMSO = 1.0, read-out: Fold Change IL-2; for fold induction at 5 µM: compound concentration 5 μM; for fold induction at 10 µM: compound concentration 10 μM
Procedure: FIGS. 4 and 9D are graphs showing anti-CD3-induced IL-2 secretion in PBMCs. 1 ug/mL anti-CD3 (OKT-3) antibody in PBS were coated onto 96-well plates overnight at 4° C. Approximately 550,000 PBMCs were added to each well, followed by addition of DMSO only, Compound 1-8 at 10 μM (FIG. 4) or Compound 9 at 0.1 μM or 1 μM (FIG. 9D), or 10 μM lenalidomide (rev). Induction was measured after 24 h as fold difference from the DMSO stimulated control.
For the IL-2 analysis, 96 well plates were precoated with 1 ug/mL anti-human CD3 antibody (OKT3, eBioscience Inc.). After washing with PBS, compounds were added to the wells (50 μL/well) followed by PBMCs diluted at 3-4 million cells/mL (150 μL/well). Plates were incubated for 24 h and the supernatants collected for Mesoscale IL-2 analysis.
Compound activity was measured as fold difference from the DMSO control. IL-1-beta activity is shown in FIG. 1; IL-6 activity is shown in FIG. 2; TNF-α activity is shown in FIG. 3; and IL-2 activity is shown in FIG. 4.

SMILES	inhibition at 5 µM (IL-1β) [%]	cytotoxicity at 10 µM (Molm-13 cells) [%]	inhibition at 5 µM (TNF-α) [%]	inhibition at 5 µM (IL-6) [%]	fold induction at 5 µM (IL-2)	inhibition at 10 µM (IL-1β) [%]	inhibition at 10 µM (TNF-α) [%]	inhibition at 10 µM (IL-6) [%]	fold induction at 10 µM (IL-2)
O=C1CCC[C@H](N2Cc3ccsc3C2=O)C(=O)N1 [Compound 1, (S)-3-(6-oxo-4,6-dihydro-5H-thieno[2,3-c]pyrrol-5-yl)azepane-2,7-dione]	25	6	22	0	0.8				
O=C1CCC[C@H](N2Cc3sccc3C2=O)C(=O)N1 [Compound 2, (S)-3-(4-oxo-4,6-dihydro-5H-thieno[2,3-c]pyrrol-5-yl)azepane-2,7-dione]	88	32	65	31	1.9				
O=C1CCC[C@H](N2C(=O)c3ccsc3C2=O)C(=O)N1 [Compound 3, (S)-5-(2,7-dioxoazepan-3-yl)-4H-thieno[2,3-c]pyrrole-4,6(5H)-dione]		0				0	0	0	0.9
O=C1NCCCC[C@@H]1N1Cc2sccc2C1=O [Compound 4, (S)-5-(2-oxoazepan-3-yl)-5,6-dihydro-4H-thieno[2,3-c]pyrrol-4-one]		0				0	0	0	0.7
O=C1CCC[C@@H](N2Cc3sccc3C2=O)C(=O)N1 [Compound 5, (R)-3-(4-oxo-4,6-dihydro-5H-thieno[2,3-c]pyrrol-5-yl)azepane-2,7-dione]		24				0	0	1	1.4
O=C1C[C@H](N2Cc3sccc3C2=O)C(=O)N1 [Compound 6, (S)-3-(4-oxo-4,6-dihydro-5H-thieno[2,3-c]pyrrol-5-yl)pyrrolidine-2,5-dione]		0				14	16	8	1
O=C1CCC[C@H](N2Cc3cscc3C2=O)C(=O)N1 [Compound 7, (S)-3-(4-oxo-4H-thieno[3,4-c]pyrrol-5(6H)-yl)azepane-2,7-dione]		24				60	41	47	1.7
Cc1scc2c1CN([C@H]1CCCC(=O)NC1=O)C2=O [Compound 8, (S)-3-(1-methyl-4-oxo-4H-thieno[3,4-c]pyrrol-5(6H)-yl)azepane-2,7-dione]		42				80	71	71	1
O=C1CCC[C@H](N2Cc3c(csc3C3CCCC3)C2=O)C(=O)N1 [Compound 10, (S)-3-(1-Cyclopentyl-4-oxo-4H-thieno[3,4-c]pyrrol-5(6H)-yl)azepane-2,7-dione]		18				21	37	13	0.6
Cc1cc2c(s1)CN([C@H]1CCCC(=O)NC1=O)C2=O [Compound 11, (S)-3-(2-Methyl-4-oxo-4,6-dihydro-5H-thieno[2,3-c]pyrrol-5-yl)azepane-2,7-dione]		18				65	46	26	2.6
CC(C)c1scc2c1CN([C@H]1CCCC(=O)NC1=O)C2=O [Compound 12, (S)-3-(1-Isopropyl-4-oxo-4H-thieno[3,4-c]pyrrol-5(6H)-yl)azepane-2,7-dione]		31				52	56	0	0.8
O=C1CCC[C@H](N2Cc3c(csc3Br)C2=O)C(=O)N1 [Compound 13, (S)-3-(1-Bromo-4-oxo-4H-thieno[3,4-c]pyrrol-5(6H)-yl)azepane-2,7-dione]		0				90	84	66	1.2
O=C1CCC[C@H](N2Cc3sc(Br)cc3C2=O)C(=O)N1 [Compound 14, (S)-3-(2-Bromo-4-oxo-4,6-dihydro-5H-thieno[2,3-c]pyrrol-5-yl)azepane-2,7-dione]		0				88	85	65	1.5
O=C1CCC[C@H](N2C(=O)c3csc([N+](=O)[O-])c3C2=O)C(=O)N1 [Compound 15, (S)-5-(2,7-Dioxoazepan-3-yl)-1-nitro-4H-thieno[3,4-c]pyrrole-4,6(5H)-dione]		19				67	55	56	0.7
Nc1scc2c1C(=O)N([C@H]1CCCC(=O)NC1=O)C2=O [Compound 16, (S)-1-Amino-5-(2,7-dioxoazepan-3-yl)-4H-thieno[3,4-c]pyrrole-4,6(5H)-dione]		23				80	78	51	2.2
N#Cc1scc2c1CN([C@H]1CCCC(=O)NC1=O)C2=O [Compound 17, (S)-5-(2,7-Dioxoazepan-3-yl)-4-oxo-5,6-dihydro-4H-thieno[3,4-c]pyrrole-1-carbonitrile]		21				4	26	14	1
NCc1scc2c1CN([C@H]1CCCC(=O)NC1=O)C2=O [Compound 18, (S)-3-(1-(Aminomethyl)-4-oxo-4H-thieno[3,4-c]pyrrol-5(6H)-yl)azepane-2,7-dione 2,2,2-trifluoroacetic Acid Salt]		3				36	48	32	0.9
O=C1CCC[C@H](N2Cc3c(csc3C(F)F)C2=O)C(=O)N1 [Compound 19, (S)-3-(1-(Difluoromethyl)-4-oxo-4H-thieno[3,4-c]pyrrol-5(6H)-yl)azepane-2,7-dione]		29				79	59	78	4
